Laboratory results reported in PubChem BioAssay AID1963829 (Molecular Pharmacology Branch, DTP, NCI, 2024).

Tested on: 935938-334-R-J1-PDC complex spheroid viability
Assay: Anticancer human tumor 935938-334-R-J1-PDC patient-derived small intestine adenocarcinoma cell line growth inhibition [POLQ]
Conditions: for IC50: curve of first compound; for viability, T/C: stronger effect = lower value
Method in brief: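 Patient-derived tumour cells were co-cultured with HUVEC and mesenchymal stem cells as multicellular spheroids at 37 °C. They were treated with POLQ inhibitors (novobiocin, ART-558, RP6685) alone or combined with other agents. Top concentrations were at or near clinical Cmax (otherwise 10 microM; SN-38 at 1 microM), decreasing in half-log steps.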

[1] = second compound 0.0316 µM, first compound 0.0316 µM
[2] = second compound 0.0316 µM, first compound 0.1 µM
[3] = second compound 0.0316 µM, first compound 0.316 µM
[4] = second compound 0.0316 µM, first compound 1 µM
[5] = second compound 0.0316 µM, first compound 3.16 µM
[6] = second compound 0.0316 µM, first compound 10 µM
[7] = second compound 0.1 µM, first compound 0.0316 µM
[8] = second compound 0.1 µM, first compound 0.1 µM
[9] = second compound 0.1 µM, first compound 0.316 µM
[10] = second compound 0.1 µM, first compound 1 µM
[11] = second compound 0.1 µM, first compound 3.16 µM
[12] = second compound 0.1 µM, first compound 10 µM
[13] = second compound 0.316 µM, first compound 0.0316 µM
[14] = second compound 0.316 µM, first compound 0.1 µM
[15] = second compound 0.316 µM, first compound 0.316 µM
[16] = second compound 0.316 µM, first compound 1 µM
[17] = second compound 0.316 µM, first compound 3.16 µM
[18] = second compound 0.316 µM, first compound 10 µM
[19] = second compound 1 µM, first compound 0.0316 µM
[20] = second compound 1 µM, first compound 0.1 µM
[21] = second compound 1 µM, first compound 0.316 µM
[22] = second compound 1 µM, first compound 1 µM
[23] = second compound 1 µM, first compound 3.16 µM
[24] = second compound 1 µM, first compound 10 µM
[25] = second compound 3.16 µM, first compound 0.0316 µM
[26] = second compound 3.16 µM, first compound 0.1 µM
[27] = second compound 3.16 µM, first compound 0.316 µM
[28] = second compound 3.16 µM, first compound 1 µM
[29] = second compound 3.16 µM, first compound 3.16 µM
[30] = second compound 3.16 µM, first compound 10 µM
[31] = second compound 10 µM, first compound 0.0316 µM
[32] = second compound 10 µM, first compound 0.1 µM
[33] = second compound 10 µM, first compound 0.316 µM
[34] = second compound 10 µM, first compound 1 µM
[35] = second compound 10 µM, first compound 3.16 µM
[36] = second compound 10 µM, first compound 10 µM
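Note: spheroids exposed to drugs for seven days before viability read.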
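Throughout, for viability, T/C: 100% = DMSO vehicle control wells.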

COc1cccc2c1C(=O)c1c(O)c3c(c(O)c1C2=O)CC(O)(C(=O)CO)CC3OC1CC(N)C(O)C(C)O1 (stereo not drawn) + Cc1cccc(N(C)C(=O)C2C(O)CCN2c2nc(C)cc(C(F)(F)F)c2C#N)c1
IC50 (second compound 0.0316 µM): 55.5 nM
IC50 (second compound 0.1 µM): 87.4 nM
IC50 (second compound 0.316 µM): 52 nM
IC50 (second compound 1 µM): 75.3 nM
IC50 (second compound 3.16 µM): 70.5 nM
IC50 (second compound 10 µM): < 31.6 nM
viability, T/C [1]: 60.2%
viability, T/C [2]: 35.3%
viability, T/C [3]: 34.6%
viability, T/C [4]: 21.2%
viability, T/C [5]: 7.49%
viability, T/C [6]: 4.38%
viability, T/C [7]: 63.8%
viability, T/C [8]: 48.5%
viability, T/C [9]: 31.6%
viability, T/C [10]: 23.7%
viability, T/C [11]: 7.55%
viability, T/C [12]: 3.7%
viability, T/C [13]: 56.5%
viability, T/C [14]: 41.8%
viability, T/C [15]: 26.8%
viability, T/C [16]: 19.7%
viability, T/C [17]: 8.13%
viability, T/C [18]: 5.68%
viability, T/C [19]: 75.8%
viability, T/C [20]: 34.2%
viability, T/C [21]: 31.4%
viability, T/C [22]: 19.3%
viability, T/C [23]: 5.12%
viability, T/C [24]: 5.59%
viability, T/C [25]: 63.8%
viability, T/C [26]: 39.4%
viability, T/C [27]: 35.3%
viability, T/C [28]: 19.8%
viability, T/C [29]: 2.97%
viability, T/C [30]: 4.99%
viability, T/C [31]: 49.4%
viability, T/C [32]: 33.8%
viability, T/C [33]: 37.7%
viability, T/C [34]: 16.8%
viability, T/C [35]: 5.04%
viability, T/C [36]: 5.34%

CCc1cc2c(N3CCc4c(cc(Cn5ccnc5)cc4-c4cn(C)nc4C(F)(F)F)C3=O)cc(C)nc2c(OC)n1 + COC1C(OC(N)=O)C(O)C(Oc2ccc3c(O)c(NC(=O)c4ccc(O)c(CC=C(C)C)c4)c(=O)oc3c2C)OC1(C)C
IC50 (second compound 0.0316 µM): > 10000 nM
IC50 (second compound 0.1 µM): > 10000 nM
IC50 (second compound 0.316 µM): > 10000 nM
IC50 (second compound 1 µM): > 10000 nM
IC50 (second compound 3.16 µM): > 10000 nM
IC50 (second compound 10 µM): > 10000 nM
viability, T/C [1]: 83.6%
viability, T/C [2]: 81.1%
viability, T/C [3]: 77.7%
viability, T/C [4]: 72.9%
viability, T/C [5]: 64.6%
viability, T/C [6]: 64.8%
viability, T/C [7]: 80.8%
viability, T/C [8]: 83.1%
viability, T/C [9]: 74.1%
viability, T/C [10]: 62.8%
viability, T/C [11]: 70.4%
viability, T/C [12]: 64%
viability, T/C [13]: 74.6%
viability, T/C [14]: 72.5%
viability, T/C [15]: 75.5%
viability, T/C [16]: 70.5%
viability, T/C [17]: 75.4%
viability, T/C [18]: 60%
viability, T/C [19]: 64.7%
viability, T/C [20]: 72%
viability, T/C [21]: 90.6%
viability, T/C [22]: 88.9%
viability, T/C [23]: 73.9%
viability, T/C [24]: 71.3%
viability, T/C [25]: 64.4%
viability, T/C [26]: 73.6%
viability, T/C [27]: 73%
viability, T/C [28]: 61.5%
viability, T/C [29]: 74.7%
viability, T/C [30]: 56.4%
viability, T/C [31]: 85.7%
viability, T/C [32]: 68.8%
viability, T/C [33]: 71.8%
viability, T/C [34]: 71.5%
viability, T/C [35]: 78.5%
viability, T/C [36]: 66.7%

CC1COCCN1c1cc(-c2ccnn2C)c2ccnc(-c3ccn[nH]3)c2n1 (stereo not drawn) + Cc1cccc(N(C)C(=O)C2C(O)CCN2c2nc(C)cc(C(F)(F)F)c2C#N)c1
IC50 (second compound 0.0316 µM): 108 nM
IC50 (second compound 0.1 µM): 97.8 nM
IC50 (second compound 0.316 µM): 107 nM
IC50 (second compound 1 µM): 125 nM
IC50 (second compound 3.16 µM): 114 nM
IC50 (second compound 10 µM): 113 nM
viability, T/C [1]: 93.5%
viability, T/C [2]: 52.1%
viability, T/C [3]: 20.2%
viability, T/C [4]: 17.5%
viability, T/C [5]: 20.1%
viability, T/C [6]: 22%
viability, T/C [7]: 105%
viability, T/C [8]: 48.6%
viability, T/C [9]: 29.4%
viability, T/C [10]: 20.7%
viability, T/C [11]: 18.7%
viability, T/C [12]: 23.3%
viability, T/C [13]: 79.2%
viability, T/C [14]: 51.7%
viability, T/C [15]: 23.6%
viability, T/C [16]: 17.7%
viability, T/C [17]: 18.9%
viability, T/C [18]: 20.8%
viability, T/C [19]: 90.2%
viability, T/C [20]: 54.9%
viability, T/C [21]: 29.8%
viability, T/C [22]: 16.4%
viability, T/C [23]: 21.9%
viability, T/C [24]: 22%
viability, T/C [25]: 83.3%
viability, T/C [26]: 53.4%
viability, T/C [27]: 23.5%
viability, T/C [28]: 17.2%
viability, T/C [29]: 18.5%
viability, T/C [30]: 23%
viability, T/C [31]: 86%
viability, T/C [32]: 51.9%
viability, T/C [33]: 32.1%
viability, T/C [34]: 18.4%
viability, T/C [35]: 22.6%
viability, T/C [36]: 22.8%

CC1COCCN1c1cc(-c2ccnn2C)c2ccnc(-c3ccn[nH]3)c2n1 (stereo not drawn) + Nc1ccc(C#CCN(C(=O)Cc2ncc(C(F)(F)F)cc2C(F)(F)F)c2ccc(F)cc2)nn1
IC50 (second compound 0.0316 µM): 71.5 nM
IC50 (second compound 0.1 µM): 85.6 nM
IC50 (second compound 0.316 µM): 86.2 nM
IC50 (second compound 1 µM): 83.8 nM
IC50 (second compound 3.16 µM): 86.6 nM
IC50 (second compound 10 µM): 91.5 nM
viability, T/C [1]: 92.4%
viability, T/C [2]: 32.2%
viability, T/C [3]: 19.1%
viability, T/C [4]: 15.3%
viability, T/C [5]: 14.8%
viability, T/C [6]: 17.6%
viability, T/C [7]: 89.4%
viability, T/C [8]: 43.9%
viability, T/C [9]: 18.5%
viability, T/C [10]: 13.6%
viability, T/C [11]: 21.2%
viability, T/C [12]: 19.4%
viability, T/C [13]: 117%
viability, T/C [14]: 40%
viability, T/C [15]: 17.4%
viability, T/C [16]: 13.3%
viability, T/C [17]: 18.7%
viability, T/C [18]: 22%
viability, T/C [19]: 103%
viability, T/C [20]: 40.2%
viability, T/C [21]: 20.2%
viability, T/C [22]: 16.3%
viability, T/C [23]: 16.8%
viability, T/C [24]: 21.2%
viability, T/C [25]: 91.7%
viability, T/C [26]: 44%
viability, T/C [27]: 15.5%
viability, T/C [28]: 16.1%
viability, T/C [29]: 19.2%
viability, T/C [30]: 27.6%
viability, T/C [31]: 93.4%
viability, T/C [32]: 46.3%
viability, T/C [33]: 19.4%
viability, T/C [34]: 18.4%
viability, T/C [35]: 19.3%
viability, T/C [36]: 21.1%
